Source: publication PMC7567103 (Nature Communications, 2020)

Tests used:
Format in all cases: cell-based
[1] = target: T1, GHRHR E123A (Homo sapiens, UniProt Q02643, E123A); experiment: cAMP accumulation, E123A; conditions: mean ± SEM, n ≥ 3
T1 construct: GHRHR(23-423)-; HA signal peptide (replaces native signal M1-G22) (N); expressed in transfected cells; host or cells: HEK 293T, pcDNA3.1, transient
Description: (§1) Fig. 2 Molecular recognition of GHRH by GHRHR and comparison of that with LA-PTH–PTH1R and GLP-1–GLP-1R. a Detailed interaction between GHRH and the TMD pocket of GHRHR with hydrogen bonds shown as dotted lines. b, c Pairwise comparison of GHRH bound to GHRHR with GLP-1 and LA-PTH in complex with their corresponding receptors, showing the relative positions of peptide ligands. Lime green, GHRHR; blue, GHRH; red, PTH1R and LA-PTH; purple, GLP-1R and GLP-1. d–f The effects of mutation in the ligand-binding pocket on cAMP accumulation. cAMP levels were measured in wild-type (WT) receptor and alanine mutants in ECL1, 2, and 3 (d), TM1, 2, and 3 (e), and TM5, 6, and 7 (f). cAMP signals were normalized to the maximum response of WT and concentration–response curves were analyzed using a three-parameter logistic equation. Data shown are means ± S.E.M. of at least three independent experiments (n = 3–5), conducted in triplicate. Source data are provided as a Source data file.
(§2) GHRH-stimulated cAMP accumulation was measured by a LANCE Ultra cAMP kit (PerkinElmer). […] After 1 h RT incubation, TR-FRET signals (excitation: 320 nm, emission: 615 and 665 nm) were measured by an EnVision (PerkinElmer).

[2] = target: T2, GHRHR L119A (Homo sapiens, UniProt Q02643, L119A); experiment: cAMP accumulation, L119A; conditions: mean ± SEM, n ≥ 3
T2 construct: GHRHR(23-423)-; HA signal peptide (replaces native signal M1-G22) (N); expressed in transfected cells; host or cells: HEK 293T, pcDNA3.1, transient
T2 sequence (Q02643 23-423 L119A): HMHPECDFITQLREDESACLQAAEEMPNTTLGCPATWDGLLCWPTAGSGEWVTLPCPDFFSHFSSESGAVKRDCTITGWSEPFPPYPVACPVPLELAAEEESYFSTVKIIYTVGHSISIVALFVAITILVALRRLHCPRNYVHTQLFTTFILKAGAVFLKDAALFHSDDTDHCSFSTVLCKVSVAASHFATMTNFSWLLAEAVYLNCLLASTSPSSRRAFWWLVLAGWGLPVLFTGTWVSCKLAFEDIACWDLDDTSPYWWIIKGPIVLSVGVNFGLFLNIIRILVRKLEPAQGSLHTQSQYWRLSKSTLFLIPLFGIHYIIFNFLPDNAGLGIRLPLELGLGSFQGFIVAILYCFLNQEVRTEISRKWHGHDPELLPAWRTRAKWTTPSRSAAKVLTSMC
Description: as §1, §2

[3] = target: T3, GHRHR L362A (Homo sapiens, UniProt Q02643, L362A); experiment: cAMP accumulation, L362A; conditions: mean ± SEM, n ≥ 3
T3 construct: GHRHR(23-423)-; HA signal peptide (replaces native signal M1-G22) (N); expressed in transfected cells; host or cells: HEK 293 T
T3 sequence (Q02643 23-423 L362A): as the sequence (Q02643 23-423 L119A) above, with A97L, L340A counted along it
Description: as §1, §2

[4] = target: T4, GHRHR(23-405)-15AA-LgBiT-2MBP (Homo sapiens, UniProt Q02643); experiment: cAMP accumulation, construct GHRHR(23-405)-15AA-LgBiT-2MBP (Supplementary Fig. 2b); conditions: HEK 293T; mean ± SEM, n = 8-10
T4 construct: 24 h after transfection with GHRHR(23-423), GHRHR(23-405), GHRHR(23-405)-LgBiT-2MBP, or HA-Flag-GHRHR (WT and mutants); HA signal peptide (replaces native signal M1-G22) (N); expressed in transfected cells; host or cells: HEK 293 T
T4 sequence (Q02643 23-405): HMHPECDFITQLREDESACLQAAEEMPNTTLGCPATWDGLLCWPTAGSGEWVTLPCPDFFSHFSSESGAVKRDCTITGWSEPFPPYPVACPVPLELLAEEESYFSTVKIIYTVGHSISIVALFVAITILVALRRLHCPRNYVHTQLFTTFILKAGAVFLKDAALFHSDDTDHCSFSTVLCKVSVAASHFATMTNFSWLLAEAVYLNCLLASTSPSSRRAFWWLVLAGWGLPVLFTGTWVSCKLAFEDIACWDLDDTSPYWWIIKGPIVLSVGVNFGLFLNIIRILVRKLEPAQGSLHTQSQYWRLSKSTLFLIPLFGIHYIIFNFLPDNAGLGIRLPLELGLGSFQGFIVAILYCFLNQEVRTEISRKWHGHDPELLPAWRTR
Protocol: GHRH-stimulated cAMP accumulation was measured by a LANCE Ultra cAMP kit (PerkinElmer). Briefly, 24 h after transfection with GHRHR(23-423), GHRHR(23-405), GHRHR(23-405)-LgBiT-2MBP, or HA-Flag-GHRHR (WT and mutants), HEK 293 T cells (3000/well in 384-well white plates, PerkinElmer) were digested by 0.2% (w/v) EDTA and 5 μL stimulation buffer (HBSS supplemented with 5 mM HEPES, 0.5 mM IBMX, and 0.1% (w/v) BSA, pH 7.4). Different concentrations (5 μL) of GHRH were then added and the stimulation lasted for 30 min at RT. The reaction was stopped by adding 5 μL Eu-cAMP tracer and 5 μL ULight-anti-cAMP. After 1 h RT incubation, TR-FRET signals (excitation: 320 nm, emission: 615 and 665 nm) were measured by an EnVision (PerkinElmer).
223 Supplementary Ta b l e 1. Effects of GHRH-mediated cAMP accumulation.
Receptor cAMP Cell surface expression Binding
pEC50 Emax (% WT) (% WT) pIC50 […]
225 to determine pEC50 and Emax values. pEC50 is the negative logarithm of the molar
226 concentration of agonist that induced half the maximal response. Cell surface […]
228 Flag antibody (Sigma-Aldrich, 1:300); Donkey anti-Mouse Alexa Fluor 488-
229 conjugated secondary antibody, (ThermoFisher Scientific, 1:1000)] on the […]
231 Binding data were analyzed using a three-parameter logistic equation to […]
234 determine statistical difference. *P<0.01; ND, not determined.

[5] = target: T5, GHRHR E361A (Homo sapiens, UniProt Q02643, E361A); experiment: cAMP accumulation, E361A; conditions: mean ± SEM, n ≥ 3
T5 construct: GHRHR(23-423)-; HA signal peptide (replaces native signal M1-G22) (N); expressed in transfected cells; host or cells: HEK 293 T
T5 sequence (Q02643 23-423 E361A): as the sequence (Q02643 23-423 L119A) above, with A97L, E339A counted along it
Description: as §1, §2

[6] = target: T6, GHRHR T192A (Homo sapiens, UniProt Q02643, T192A); experiment: cAMP accumulation, T192A; conditions: mean ± SEM, n ≥ 3
T6 construct: GHRHR(23-423)-; HA signal peptide (replaces native signal M1-G22) (N); expressed in transfected cells; host or cells: HEK 293T, pcDNA3.1, transient
T6 sequence (Q02643 23-423 T192A): as the sequence (Q02643 23-423 L119A) above, with A97L, T170A counted along it
Description: as §1, §2

[7] = target: T7, GHRHR A271R (Homo sapiens, UniProt Q02643, A271R); experiment: cAMP accumulation, A271R; conditions: mean ± SEM, n ≥ 3
T7 construct: GHRHR(23-423)-; HA signal peptide (replaces native signal M1-G22) (N); expressed in transfected cells; host or cells: HEK 293T, pcDNA3.1, transient
T7 sequence (Q02643 23-423 A271R): as the sequence (Q02643 23-423 L119A) above, with A97L, A249R counted along it
Description: as §1, §2

T1 sequence (Q02643 23-423 E123A): as the sequence (Q02643 23-423 L119A) above, with A97L, E101A counted along it

`CC[C@H](C)[C@H](NC(=O)[C@H](C)NC(=O)[C@H](CC(=O)O)NC(=O)[C@H](C)NC(=O)[C@@H](N)Cc1ccc(O)cc1)C(=O)N[C@@H](Cc1ccccc1)C(=O)N[C@H](C(=O)N[C@@H](CC(N)=O)C(=O)N[C@@H](CO)C(=O)N[C@@H](Cc1ccc(O)cc1)C(=O)N[C@@H](CCCNC(=N)N)C(=O)N[C@@H](CCCCN)C(=O)N[C@H](C(=O)N[C@@H](CC(C)C)C(=O)NCC(=O)N[C@@H](CCC(N)=O)C(=O)N[C@@H](CC(C)C)C(=O)N[C@@H](CO)C(=O)N[C@@H](C)C(=O)N[C@@H](CCCNC(=N)N)C(=O)N[C@@H](CCCCN)C(=O)N[C@@H](CC(C)C)C(=O)N[C@@H](CC(C)C)C(=O)N[C@@H](CCC(N)=O)C(=O)N[C@@H](CC(=O)O)C(=O)N[C@H](C(=O)N[C@@H](CCSC)C(=O)N[C@@H](CO)C(=O)N[C@@H](CCCNC(=N)N)C(=O)N[C@@H](CCC(N)=O)C(=O)N[C@@H](CCC(N)=O)C(=O)NCC(=O)N[C@@H](CCC(=O)O)C(=O)N[C@@H](CO)C(=O)N[C@@H](CC(N)=O)C(=O)N[C@@H](CCC(N)=O)C(=O)N[C@@H](CCC(=O)O)C(=O)N[C@@H](CCCNC(=N)N)C(=O)NCC(=O)N[C@@H](C)C(=O)N[C@@H](CCCNC(=N)N)C(=O)N[C@@H](C)C(=O)N[C@@H](CCCNC(=N)N)C(=O)N[C@@H](CC(C)C)C(N)=O)[C@@H](C)CC)C(C)C)[C@@H](C)O` [GHRH, Growth hormone-releasing hormone] gave an EC50 [1] of 0.0724 nM, an Emax [1] of 100.33±1.34 % WT and an EC50 [2] of 0.724 nM. The Emax [2] was 98.67±1.48 % WT, the EC50 [3] was 0.112 nM and the Emax [3] was 103.97±0.47 % WT. For the same molecule, the EC50 [4] was 2.88 nM, the Emax [4] was 78.82±10.52 % WT and the EC50 [5] was 1.05 nM. It also gave an Emax [5] of 18.75±4.38 % WT, an EC50 [6] of 0.229 nM and an Emax [6] of 103.11±1.18 % WT. It also gave an EC50 [7] of 0.105 nM and an Emax [7] of 100.81±1.19 % WT.
